Experimental data as given in patent US20060079566A1, “PDK-1/Akt signaling inhibitors” (priority 2003, published 2006).

Key:
HCT-15 = assay: NCI DTP screen (SRB), Colon Cancer; type: cell-based; conditions: Homo sapiens
Protocol: (§5) After 24 h, two plates of each cell line are fixed in situ with TCA, to represent a measurement of the cell population for each cell line at the time of drug addition (Tz). Experimental drugs are solubilized in dimethyl sulfoxide at 400-fold the desired final maximum test concentration and stored frozen prior to use. […]
(§6) Following drug addition, the plates are incubated for an additional 48 h at 37° C., 5% CO2, 95% air, and 100% relative humidity. […] Bound stain is subsequently solubilized with 10 mM trizma base, and the absorbance is read on an automated plate reader at a wavelength of 515 nm. […] Using the seven absorbance measurements [time zero, (Tz), control growth, (C), and test growth in the presence of drug at the five concentration levels (Ti)], the percentage growth is calculated at each of the drug concentrations levels. Percentage growth inhibition is calculated as: [(Ti−Tz)/(C−Tz)]×100 for concentrations for which Ti>/=Tz [(Ti−Tz)/Tz]×100 for concentrations for which Ti<Tz […]

HS 57BT = assay: NCI DTP screen (SRB), Breast Cancer; type: cell-based
Protocol: (§1) Screening of compounds 70 and 71 against several cancer cell lines The human tumor cell lines of the cancer screening panel are grown in RPMI 1640 medium containing 5% fetal bovine serum and 2 mM L-glutamine. For a typical screening experiment, cells are inoculated into 96 well microtiter plates in 100 μL at plating densities ranging from 5,000 to 40,000 cells/well depending on the doubling time of individual cell lines. After cell inoculation, the microtiter plates are incubated at 37° C., 5% CO2, 95% air and 100% relative humidity for 24 h prior to addition of experimental drugs.
(§2) After 24 h, two plates of each cell line are fixed in situ with TCA, to represent a measurement of the cell population for each cell line at the time of drug addition (Tz). Experimental drugs are solubilized in dimethyl sulfoxide at 400-fold the desired final maximum test concentration and stored frozen prior to use. At the time of drug addition, an aliquot of frozen concentrate is thawed and diluted to twice the desired final maximum test concentration with complete medium containing 50 μg/ml gentamicin. Additional four, 10-fold or ½ log serial dilutions are made to provide a total of five drug concentrations plus control. Aliquots of 100 μl of these different drug dilutions are added to the appropriate microtiter wells already containing 100 μl of medium, resulting in the required final drug concentrations.
(§3) Following drug addition, the plates are incubated for an additional 48 h at 37° C., 5% CO2, 95% air, and 100% relative humidity. For adherent cells, the assay is terminated by the addition of cold TCA. Cells are fixed in situ by the gentle addition of 50 μl of cold 50% (w/v) TCA (final concentration, 10% TCA) and incubated for 60 minutes at 4° C. The supernatant is discarded, and the plates are washed five times with tap water and air dried. Sulforhodamine B (SRB) solution (100 μl) at 0.4% (w/v) in 1% acetic acid is added to each well, and plates are incubated for 10 minutes at room temperature. After staining, unbound dye is removed by washing five times with 1% acetic acid and the plates are air dried. Bound stain is subsequently solubilized with 10 mM trizma base, and the absorbance is read on an automated plate reader at a wavelength of 515 nm. For suspension cells, the methodology is the same except that the assay is terminated by fixing settled cells at the bottom of the wells by gently adding 50 μl of 80% TCA (final concentration, 16% TCA). Using the seven absorbance measurements [time zero, (Tz), control growth, (C), and test growth in the presence of drug at the five concentration levels (Ti)], the percentage growth is calculated at each of the drug concentrations levels. Percentage growth inhibition is calculated as: [(Ti−Tz)/(C−Tz)]×100 for concentrations for which Ti>/=Tz [(Ti−Tz)/Tz]×100 for concentrations for which Ti<Tz
(§4) Three dose response parameters are calculated for each experimental agent. […] The drug concentration resulting in total growth inhibition (TGI) is calculated from Ti=Tz. […] Values are calculated for each of these three parameters if the level of activity is reached; however, if the effect is not reached or is exceeded, the value for that parameter is expressed as greater or less than the maximum or minimum concentration tested.

T-47D = assay: NCI DTP screen (SRB), Breast Cancer; type: cell-based
Protocol: as §1, §2, §3, §4

MDA-MB-435 = assay: NCI DTP screen (SRB), Breast Cancer; type: cell-based; conditions: Homo sapiens
Protocol: as §1, §2, §3, §4

MDA-MB-231/ATCC = assay: NCI DTP screen (SRB), Breast Cancer; type: cell-based
Protocol: as §1, §2, §3, §4

NCI/ADR-RES = assay: NCI DTP screen (SRB), Breast Cancer; type: cell-based; conditions: Homo sapiens
Protocol: as §1, §2, §3, §4

HOP-92 = assay: NCI DTP screen (SRB), Non-Small Cell Lung Cancer; type: cell-based; conditions: Homo sapiens, HOP-92, read-out: LC50
Protocol: as §5, §6

UO-31 = assay: NCI DTP screen (SRB), Renal Cancer; type: cell-based, human; conditions: Homo sapiens, UO-31
Protocol: as §1, §2, §3, §4

RXP 393 = assay: NCI DTP screen (SRB), Renal Cancer; type: cell-based, human
Protocol: as §1, §2, §3, §4

IGROV1 = assay: NCI DTP screen (SRB), Ovarian Cancer; type: cell-based; conditions: Homo sapiens
Protocol: as §1, §2, §3, §4

SK-OV-3 = assay: NCI DTP screen (SRB), Ovarian Cancer; type: cell-based; conditions: Homo sapiens
Protocol: as §1, §2, §3, §4

OVCAR-5 = assay: NCI DTP screen (SRB), Ovarian Cancer; type: cell-based; conditions: Homo sapiens
Protocol: as §1, §2, §3, §4

OVCAR-4 = assay: NCI DTP screen (SRB), Ovarian Cancer; type: cell-based; conditions: Homo sapiens
Protocol: as §1, §2, §3, §4

OVCAR-8 = assay: NCI DTP screen (SRB), Ovarian Cancer; type: cell-based; conditions: Homo sapiens
Protocol: as §1, §2, §3, §4

OVCAR-3 = assay: NCI DTP screen (SRB), Ovarian Cancer; type: cell-based
Protocol: as §1, §2, §3, §4

MCP7 = assay: NCI DTP screen (SRB), Breast Cancer; type: cell-based, human; conditions: MCP7
Protocol: as §1, §2, §3, §4

[1] = system: sixty human tumor cell lines; assay: NCI DTP sixty cell line assay, means over the panel; type: cell-based
Protocol: as §1, §2, §3, §4

SK-MEL-2 = assay: NCI DTP screen (SRB), Melanoma; type: cell-based
Protocol: as §1, §2, §3, §4

TK-10 = assay: NCI DTP screen (SRB), Renal Cancer; type: cell-based; conditions: Homo sapiens
Protocol: as §1, §2, §3, §4

ACHN = assay: NCI DTP screen (SRB), Renal Cancer; type: cell-based; conditions: Homo sapiens
Protocol: as §1, §2, §3, §4

SN12C = assay: NCI DTP screen (SRB), Renal Cancer; type: cell-based; conditions: Homo sapiens
Protocol: as §1, §2, §3, §4

## NCC(=O)Nc1ccc(-n2nc(C(F)(F)F)cc2-c2ccc3c(ccc4ccccc43)c2)cc1 [Compound 70, 2-Amino-N-{4-[5-(2-phenanthrenyl)-3-(trifluoromethyl)-1H-pyrazol-1-yl]-phenyl}-acetamide]
HCT-15; HCT-15
  GI50: 365 nM
HCT-15; HCT-15, read-out: LC50
  CC50: > 100000 nM
HS 57BT; HS 57BT, Log10 Concentration −5.0
  Percent Growth: −34%
HS 57BT; HS 57BT, Log10 Concentration −6.0
  Percent Growth: 88%
HS 57BT; Homo sapiens, read-out: LC50
  CC50: > 100000 nM
HS 57BT; Homo sapiens, HS 57BT
  GI50: 2050 nM
T-47D; Homo sapiens, T47D
  GI50: 1820 nM
T-47D; Log10 Concentration −4.0
  Percent Growth: −64%
MDA-MB-435
  GI50: 1350 nM
MDA-MB-231/ATCC; Homo sapiens, MDA-MB-231, read-out: LC50
  CC50: 6670 nM
MDA-MB-231/ATCC; Homo sapiens, MDA-MB-231/ATCC
  GI50: 1150 nM
MDA-MB-231/ATCC; MDA-MB-231/ATCC, Log10 Concentration −8.0
  Mean Optical Densities: 1.988
NCI/ADR-RES
  GI50: 954 nM
NCI/ADR-RES; read-out: LC50
  CC50: 8280 nM
HOP-92
  CC50: 5870 nM
UO-31
  GI50: 1370 nM
RXP 393; Homo sapiens
  GI50: 1140 nM
RXP 393; Log10 Concentration −4.0
  Percent Growth: 10%
RXP 393; Log10 Concentration −7.0
  Mean Optical Densities: 0.700
RXP 393; Log10 Concentration −8.0
  Mean Optical Densities: 0.766
IGROV1; IGROV-1, read-out: LC50
  CC50: > 100000 nM
IGROV1; IGROV-1, IGROV1
  GI50: 1560 nM
SK-OV-3
  GI50: 1370 nM
OVCAR-5; OVCAR-5
  GI50: 1710 nM
OVCAR-5; OVCAR-5, read-out: LC50
  CC50: 6450 nM
OVCAR-4; OVCAR-4
  GI50: 1780 nM
OVCAR-4; OVCAR-4, read-out: LC50
  CC50: 6550 nM
OVCAR-8; OVCAR-8
  GI50: 1020 nM
OVCAR-8; OVCAR-8, read-out: LC50
  CC50: > 100000 nM
OVCAR-3; Homo sapiens
  GI50: 1510 nM
OVCAR-3; Log10 Concentration −8.0
  Mean Optical Densities: 1.879
MCP7; Homo sapiens
  GI50: 718 nM
MCP7; Log10 Concentration −5.0
  Percent Growth: −57%
MCP7; Log10 Concentration −6.0
  Percent Growth: 43%
[1]
  range in which cell growth is completely suppressed in a diverse range of tumor cell lines: 3 to 5 µM
[1]; Homo sapiens, 48 h, read-out: mean LC50 among the sixty cell lines
  CC50: 24000 nM
[1]; Homo sapiens, 48 h, two-day treatment, serum-containing medium, read-out: mean GI50 among the sixty cell lines
  GI50: 1100 nM
[1]; two-day exposure, 5% FBS-containing medium
  concentration at which many cell lines respond to the growth inhibitory effect: ≥ 0.1 µM
SK-MEL-2; Homo sapiens, SK-MEL-2
  GI50: 2330 nM
SK-MEL-2; Homo sapiens, SK-MEL-2, read-out: LC50
  CC50: > 100000 nM
SK-MEL-2; SK-MEL-2, Log10 Concentration −5.0
  Percent Growth: −67%
TK-10; TK-10
  GI50: 1480 nM
TK-10; TK-10, read-out: LC50
  CC50: 6470 nM
ACHN
  GI50: 1420 nM
SN12C
  GI50: 1580 nM
